{"source": "patent US20100113613A1", "about": "“CYCLOHEXANE POLYALCOHOL FORMULATION FOR TREATMENT OF DISORDERS OF PROTEIN AGGREGATION” (WARATAH PHARMACEUTICALS, priority 2006, published 2010)", "key": {"in vivo [1]": {"assay": "in vivo", "settings": "dog, po", "experimental": "(§1) Three studies were performed to investigate the pharmacokinetics of oral administration of a scyllo-cyclohexanehexyl (Table 1):\nTwo studies have investigated the single dose PK of oral administration of a scyllo-cyclohexanehexyl in dogs. The 14 day study investigated 18 animals. On Day 1 of this study Cmax and AUC values increased proportionally with dose level of a scyllo-cyclohexanehexyl. […] The extensive brain penetrance of the scyllo-cyclohexanhexyl (see below) may be relevant in this regard."}, "in vivo [2]": {"assay": "in vivo", "settings": "dog, po, 150 mg/kg", "experimental": "Plasma PK of a scyllo-cyclohexanhexyl in dogs was assessed after 14 days oral dosing of 15, 50 and 150 mg/kg, administered twice daily. As on Day 1 of this study Cmax and AUC values increased proportionally with dose level of scyllo-cyclohexanehexyl. However, dose-normalised exposures appeared to decrease with dose. This contrasts with positive trend observed after acute exposure. […] As for single doses, the scyllo-cyclohexanehexyl was absorbed rapidly, with tmax observed between 1.1 and 1.8 hours post-dose. […] Estimates of MRT were consistent. The Vdss and Cl/F values were similar for all dose levels."}, "in vivo [3]": {"assay": "in vivo", "settings": "rat", "experimental": "Plasma PK of a scyllo-cyclohexanehexyl compound in rats was assessed after 28 days oral dosing of 15, 50 and 150 mg/kg, administered twice daily. […] Indeed, at this dose level, the Vdss, clearance and elimination rates appeared to be reduced with repeated dosing. […] As for single doses, the scyllo-cyclohexanehexyl was absorbed rapidly, with mean tmax observed between 1.2 and 1.3 hours post-dose. […] Estimates of MRT were consistent."}, "[4]": {"assay": "Brain penetrance: plasma and CSF pharmacokinetics after single oral doses in dogs", "format": "in vivo, dog", "text": "CSF bathes the central nervous system and sits on the inside of the blood brain barrier. Although a centrally-acting drug will still need to penetrate brain tissue to exert an effect, quantification of drug in CSF may provide a gross estimate of brain-penetrance."}, "[5]": {"assay": "CSF and plasma levels at end of 14 day repeat dose study in dogs", "format": "in vivo, dog", "settings": "30 mg/kg/day for 14 days", "experimental": "CSF was also collected from dogs at the end of the 14 day repeat study upon necropsy (approximately 24 hours after the final dose was administered). Levels of the scyllo-cyclohexanehexyl in CSF increased with dose and followed the profile observed in plasma."}, "[6]": {"assay": "Single oral and intravenous dose pharmacokinetics, dose range-finding study in beagle dogs", "format": "in vivo, beagle dog", "settings": "dogs, comparison of PK profiles following oral and i.v. administration", "experimental": "PK of single oral doses of the scyllo-cyclohexanhexyl was also investigated in a preliminary fashion in a dose range-finding study in 5 beagle dogs. […] The Cmax and AUC values increased proportionally with dose, consistent with observations in the larger study. Estimates of t½ ranged from 2 to 5 hours. Neither dose nor route of administration had any clear effect on t½, MRT, Cl/F or Vdss."}, "in vivo [7]": {"assay": "in vivo", "settings": "rat, po, 150 mg/kg", "experimental": "as §1\nPlasma pharmacokinetics (PK) of a scyllo-cyclohexanehexyl in rats was assessed after single oral doses of 15, 50 and 150 mg/kg. After single oral doses in rats, maximum plasma concentration (Cmax) and exposure (AUC0-t) values increased proportionally with dose level of the scyllo-cyclohexanehexyl. Other parameters were unchanged with dose level. The scyllo-cyclohexanehexyl was absorbed rapidly, with mean tmax observed between 1.0 and 2.2 hours post-dose. […] Estimates of mean residence time (MRT) were consistent. Volumes of distribution (Vdss) were large, indicating wide distribution of scyllo-cyclohexanehexyl in rats."}, "[8]": {"settings": "single oral doses 20, 80, 240 mg/kg"}}, "note": "Values joined by “and” are separate entries in the source; they are usually repeats but may differ in a detail not shown here. Equal entries are not always repeated.", "data": [{"substance": "scyllo-inositol [AZD-103]", "values": [{"measurement": "Tmax", "setting": "in vivo [1]", "result": "1.2 to 2.2", "unit": "h"}, {"measurement": "t½", "setting": "in vivo [1]", "result": "1.7 to 2.2", "unit": "h"}, {"measurement": "AUC(0-t)", "setting": "in vivo [2]", "result": 523, "unit": "µg·h/mL"}, {"measurement": "Tmax", "setting": "in vivo [2]", "result": "1.1 to 1.8", "unit": "h"}, {"measurement": "t½", "setting": "in vivo [2]", "result": "2.9 to 4.7", "unit": "h"}, {"measurement": "mean plasma concentration 12 hours after the last administration", "setting": "in vivo [3]", "result": "~6000", "unit": "ng/mL"}, {"measurement": "AUC(0-t)", "setting": "in vivo [3]; po, 150 mg/kg", "result": 573, "unit": "µg·h/mL"}, {"measurement": "mean tmax", "setting": "in vivo [3]; po, 150 mg/kg", "result": "1.2 to 1.3", "unit": "h"}, {"measurement": "t½", "setting": "in vivo [3]; po, 150 mg/kg", "result": "3.1 to 4.4", "unit": "h"}, {"measurement": "Mean Cmax and AUC0-Inf in CSF as % of that observed in plasma", "setting": "[4]", "result": 60, "unit": "%"}, {"measurement": "plasma tmax (same animals)", "setting": "[4]; [8]", "result": "2.3 to 2.8", "unit": "h"}, {"measurement": "tmax in CSF", "setting": "[4]; [8]", "result": "2.8 to 4.0", "unit": "h"}, {"measurement": "Mean Cmax in CSF as % of plasma Cmax", "setting": "[4]; single oral doses 20, 80, 240 mg/kg, same animals", "result": "27-66%"}, {"measurement": "AUC0-Inf in CSF as % of that in plasma", "setting": "[4]; single oral doses, same animals, listed as scyllo-cyclohexanehexyl", "result": "62% and 65%"}, {"measurement": "levels in both plasma and CSF (12 and 24 hours after the last administration)", "setting": "[5]", "result": "~4000", "unit": "ng/mL"}, {"measurement": "estimated bioavailability", "setting": "[6]", "result": "> 90", "unit": "%"}, {"measurement": "half life (t1/2)", "setting": "in vivo [7]", "result": "2.1 to 2.7", "unit": "h"}, {"measurement": "mean tmax", "setting": "in vivo [7]", "result": "1.0 to 2.2", "unit": "h"}]}]}
